Laboratory results taken from paper PMC11019746 (ACS Pharmacology & Translational Science, 2024).
Read-outs that look alike come from different tables or passages of the source. Marks after values point to notes of the source that are not given here. Blank lines part the entries; values can stand above or below the compound they belong to.

What was measured:
[1] = target: T1, Y4R^SwBac displaying BBVs (Homo sapiens, UniProt P50391); assay: Fluorescence anisotropy Y4R competition binding with 16 (Y4R^SwBac BBVs); settings: DPBS, 16 (0.5 nM) as labeled probe, read-out: pKi FA, 137 mM Na+ (converted)
T1 construct: made in house; host or cells: Sf9 insect cells (budded baculovirus particles; MultiBac, with or without the SweetBac module)
Description: Two types of MultiBac baculoviruses were used: one type encodes only for hY4R resulting in BBVs displaying Y4R devoid of a mammalian-like glycosylation (herein termed Y4R^nonglyco) and the second type additionally encodes for enzymes providing a mammalian-like glycosylation in Sf9 cells (herein termed Y4R^SwBac; see also Section Molecular Cloning). The obtained viruses were collected by centrifugation at 1600g for 10 min, and the virus titer was determined with an image-based cell-size estimation assay as described elsewhere.[64] […]
FA measurements were carried out using a Synergy NEO multimode plate reader (BioTek, Winooski, VT) and black, half-area, flat-bottom polystyrene NBS (nonbinding surface) 96-well plates (Corning, Corning, NY, product no. 3993). Polarizing excitation (530 ± 15 nm) and dual emission (590 ± 17.5 nm) filters with a dichroic mirror were used, allowing the simultaneous detection of parallelly and perpendicularly polarized fluorescence emission. […]
FA signals were measured for 1.5 h.
Data processing for FA binding assays was assisted by the software Aparecium 2.0.20 developed in house (http://www.gpcr.ut.ee/software.html). Prior to the calculation of FA using eq 1,[19] the measured parallel [I∥(t)] and perpendicular [I⊥(t)] fluorescence intensities were blank-corrected on the basis of the values obtained from wells containing BBVs but no receptor ligand. […]

hY4R [2] = target: T2, hY4R (Homo sapiens, UniProt P50391); assay: Flow cytometric Y4R competition binding with 16 as labeled ligand; parameters: expressed in transfected cells; host or cells: CHO (co-expressing Gqi5 and mitochondrially targeted aequorin); settings: intact CHO-hY4R-Gqi5-mtAEQ cells
Description: The latter was used for injection of the samples of saturation and competition binding experiments. At least three individual experiments were performed in duplicate (kinetic experiments) or triplicate (saturation and competition binding). […] Measurements were stopped after counting of 2000–10000 gated events.
2 to 3 days prior to the experiment, cells were seeded in T75 or T175 culture flasks. On the day of the experiment, cells were detached by trypsinization, suspended in culture medium, and centrifuged. […] HCl (nonlabeled ligands, saturation, and kinetic experiments).

hY2R [3] = target: T3, hY2R (Homo sapiens, UniProt P49146); settings: cited from earlier work
T3 construct: host or cells: CHO
T3 sequence (P49146 1-381): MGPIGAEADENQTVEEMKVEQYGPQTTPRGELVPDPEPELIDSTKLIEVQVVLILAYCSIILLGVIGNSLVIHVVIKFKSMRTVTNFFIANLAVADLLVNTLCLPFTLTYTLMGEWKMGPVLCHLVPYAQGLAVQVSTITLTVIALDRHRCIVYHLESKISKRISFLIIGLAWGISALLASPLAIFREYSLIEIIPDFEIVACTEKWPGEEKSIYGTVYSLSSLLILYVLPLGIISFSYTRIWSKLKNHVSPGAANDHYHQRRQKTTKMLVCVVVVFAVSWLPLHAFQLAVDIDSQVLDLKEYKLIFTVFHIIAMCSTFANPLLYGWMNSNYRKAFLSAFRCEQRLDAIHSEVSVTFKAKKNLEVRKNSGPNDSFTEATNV

hY4R-Nluc(intraECL2) = hY4R-Nluc(intraECL2) (Homo sapiens, UniProt P50391, INS195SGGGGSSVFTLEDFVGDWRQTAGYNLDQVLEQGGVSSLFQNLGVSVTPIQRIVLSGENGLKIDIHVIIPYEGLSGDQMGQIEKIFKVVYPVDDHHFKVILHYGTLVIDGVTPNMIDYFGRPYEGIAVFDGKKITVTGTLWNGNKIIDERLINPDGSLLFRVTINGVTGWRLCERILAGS); assay: NanoBRET Y4R competition binding with 16
Description: One the day prior to the experiment, HEK293T-hY4R-Nluc(intraECL2) cells were detached from the culture flask by trypsinization, centrifuged (500g, 5 min), and resuspended in FBS-free L15-HEPES. The cell density was adjusted to 1.14 × 10^6 cells/mL, and the cells were seeded into white 96-well plates (Brand, Wertheim, Germany) (70 μL, 80,000 cells per well) and incubated overnight in a water-saturated atmosphere (only atmospheric CO2). […] The final BSA concentration in the assay was 1.5% (30 μL of a solution containing 5% BSA added to 70 μL of BSA-free medium, as outlined below).
All BRET measurements were performed at a temperature of 25 °C using a TECAN Infinite Lumi plate reader (Tecan, Crailsheim, Germany) equipped with an injection module. Bioluminescence of the nanoluciferase was detected using a 460/35 nm band-pass (460/35 BP) filter. The emission of the fluorescent ligands was detected through a 610 nm long-pass (610 LP) filter. […]
Total binding data from competition binding experiments were plotted as corrected BRET ratio over log(competitor concentration, M) and analyzed by a four-parameter logistic equation (log(inhibitor) vs response–variable slope, GraphPad Prism 5) to obtain the TOP value (upper curve plateau), which was used for data normalization (100% = TOP value, 0% = average of the corrected BRET ratio obtained from unspecific binding). […]

hY5R [4] = target: T4, hY5R (Homo sapiens, UniProt Q15761); settings: cited from earlier work
T4 construct: expressed in transfected cells; host or cells: HEC-1B (human endometrial cancer)
T4 sequence (Q15761 1-445): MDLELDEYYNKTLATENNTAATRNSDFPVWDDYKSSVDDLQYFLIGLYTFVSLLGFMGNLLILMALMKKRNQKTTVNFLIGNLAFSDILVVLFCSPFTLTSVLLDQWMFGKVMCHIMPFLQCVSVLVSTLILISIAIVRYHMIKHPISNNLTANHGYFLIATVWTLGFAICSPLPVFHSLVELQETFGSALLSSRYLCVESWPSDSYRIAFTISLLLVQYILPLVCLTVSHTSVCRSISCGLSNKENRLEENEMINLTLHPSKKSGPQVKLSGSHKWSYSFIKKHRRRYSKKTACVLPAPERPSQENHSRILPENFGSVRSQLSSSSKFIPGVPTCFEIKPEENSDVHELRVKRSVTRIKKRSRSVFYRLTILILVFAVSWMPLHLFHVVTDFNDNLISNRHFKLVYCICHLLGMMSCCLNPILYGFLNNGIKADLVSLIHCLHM

Y4R [5] = target: T5, Y4R (Homo sapiens, UniProt P50391); assay: Y4R miniGsi recruitment assay (HEK293T-NlucN-mGsi/Y4R-NlucC cells); format: cell-based; parameters: expressed in transfected cells; host or cells: HEK293T; settings: for EC50: HEK293T-NlucN-mGsi/Y4R-NlucC cells; for Emax: read-out: miniGsi recruitment Emax ± SEM; as to miniGsi recruitment Emax ± SEM: relative to 1 µM hPP (100%)
Description: Furimazine was used as nanoluciferase substrate. The original stock was diluted 1:1000 in L15-HEPES to obtain the feed solution for the assay. Data analysis was performed based on the areas under the curves (time window: 45 min starting with the agonist addition) using GraphPad Prism 5. […] Efficacies Emax correspond to the upper plateaus of the normalized concentration–response curves.

hY1R [6] = target: T6, hY1R (Homo sapiens, UniProt P25929); settings: cited from earlier work
T6 construct: host or cells: SK-N-MC neuroblastoma cells
T6 sequence (P25929 1-384): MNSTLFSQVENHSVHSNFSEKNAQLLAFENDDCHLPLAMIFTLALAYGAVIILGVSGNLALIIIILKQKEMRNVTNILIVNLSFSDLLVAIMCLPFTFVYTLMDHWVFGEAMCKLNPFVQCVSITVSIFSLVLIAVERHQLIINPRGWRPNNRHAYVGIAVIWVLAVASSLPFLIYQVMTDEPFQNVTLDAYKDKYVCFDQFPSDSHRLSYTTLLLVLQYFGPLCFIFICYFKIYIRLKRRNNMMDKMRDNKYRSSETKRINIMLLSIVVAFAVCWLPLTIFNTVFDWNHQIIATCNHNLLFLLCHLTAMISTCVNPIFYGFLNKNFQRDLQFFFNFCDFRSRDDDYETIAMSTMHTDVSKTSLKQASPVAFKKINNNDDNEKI

Y4R [7] = target: T5, Y4R; assay: radioligand competition binding (137 mM Na+); settings: cited from earlier work
[8] = target: Y2 receptor (Homo sapiens) (UniProt P49146); settings: cited from earlier work
[9] = target: Y5 receptor (Homo sapiens) (UniProt Q15761); settings: cited from earlier work
Y4R [10] = target: T5, Y4R; assay: radioligand competition binding; settings: cited from earlier work
[11] = target: Y1 receptor (Homo sapiens) (UniProt P25929); settings: cited from earlier work
hY1R [12] = target: T6, hY1R; assay: Y1R radioligand competition binding, whole SK-N-MC cells, [3H]UR-MK299; settings: SK-N-MC neuroblastoma cells, [3H]UR-MK299 c = […]
Description: (§1) All radioligand binding assays were performed at intact Y receptor expressing cells at 23 ± 2 °C.
Competition binding assays at Y1R-expressing SK-N-MC neuroblastoma cells were performed as previously described using [^3H]UR-MK299 as radioligand (concentration: 0.15 nM).[33] […] (logarithmic form in the case of pKi values).

hY2R [13] = target: T3, hY2R; assay: Y2R radioligand competition binding, whole CHO-hY2R cells, [3H]propionyl-pNPY; settings: read-out: pKi ± SEM hY2R (converted)
Description: as §1

hY4R [14] = target: T2, hY4R; assay: Y4R Ca2+ aequorin assay (CHO-hY4R-Gqi5-mtAEQ cells); format: cell-based; parameters: expressed in transfected cells; host or cells: CHO (co-expressing Gqi5 and mitochondrially targeted aequorin); settings: read-out: Ca2+-aequorin Emax ± SEM
Description: The assay was performed with live CHO-hY4R-Gqi5-mtAEQ cells as previously described (used buffer: buffer III). Measurements were carried out on a Tecan Infinite Lumi plate reader. Data analysis was performed as reported using GraphPad Prism 5 for the calculation of the area under the curve. […] Efficacies Emax correspond to the upper plateaus of the normalized concentration–response curves.

hY4R [15] = target: T2, hY4R; assay: Y4R cAMP CAMYEN assay (HEK293T-CAMYEN-hY4R cells); format: cell-based; parameters: expressed in transfected cells; settings: read-out: CAMYEN cAMP Emax ± SEM; also: relative to 1 µM hPP (100%)
Description: The assay was performed with live HEK293T-CAMYEN-hY4R cells applying a reported protocol.[31] Experiments were performed in triplicate. Data processing was performed with GraphPad Prism 9.0 as previously described.[31]

hY5R [16] = target: T4, hY5R; assay: Y5R radioligand competition binding, whole HEC-1B-hY5R cells, [3H]propionyl-pNPY; settings: [3H]propionyl-pNPY c = 5 nM
Description: as §1
(logarithmic form in the case of pKi values).

[17] = Chemical stability in PBS pH 7.4; format: physicochemical; settings: PBS pH 7.4, room temperature, 48 h, 100 μM
Description: The chemical stability of the fluorescent ligands 16, 17, and 18 was investigated in PBS (adjusted to pH 7.4) at 22 °C. […] After time periods of 0, 6, and 48 h, an aliquot (25 μL) was withdrawn and added to 25 μL of acetonitrile/0.04% aq. TFA 1:9 v/v to obtain a peptide solution with a concentration of 50 μM. 20 μL of this solution were subjected to analytical RP-HPLC analysis using the same system and conditions as described under Analytical HPLC, but applying a different linear gradient: 0–14 min: A/B 90:10–45:55, 14–15 min: 45:55–5:95, 15–19 min: 5:95 (isocratic). A 1:1 mixture of PBS and acetonitrile/0.04% aq. TFA 1:9 v/v (20 μL) was analyzed to obtain the blank chromatogram.

Y4R [18] = target: T5, Y4R; settings: cited from earlier work
Y4R [19] = target: T5, Y4R; settings: cited from earlier work; remark: listed apart in the source
hY4R [20] = target: T2, hY4R; parameters: expressed in transfected cells; host or cells: CHO (co-expressing Gqi5 and mitochondrially targeted aequorin); settings: cited from earlier work
[21] = DPBS, 16 (1 nM) as labeled probe, read-out: pKi flow cytometry, 137 mM Na+ (converted)
[22] = buffer I, 16 (0.5 nM) as labeled probe, read-out: pKi flow cytometry, Na+ free (converted)
[23] = read-out: pKi ± SEM hY1R (converted)
[24] = read-out: pKi ± SEM hY5R (converted)

- Ki (hY1R [12]; [23]): > 1000 nM
- Ki (hY2R [13]): > 1000 nM
- Emax (hY4R [14]): 71 ± 3%
- Emax (hY4R [15]): 90 ± 3%
- Ki (hY5R [16]; [24]): > 1000 nM
- EC50 (Y4R [5]; read-out: miniGsi recruitment pEC50 ± SEM (converted)): 85.1 nM
- Emax (Y4R [5]): 70 ± 9%
- chemical stability [17]: excellent stability
Compound: CC(C)C[C@H](NC(=O)[C@@H]1CCCNC(N)=NC(=O)NCCCCNC(=O)[C@H](NC(=O)CCCNC(=O)CCCCCN2/C(=C/C=C/C=C/C3=[N+](CCCCS(=O)(=O)[O-])c4ccccc4C3(C)C)C(C)(C)c3cc(S(=O)(=O)O)ccc32)CC(=O)N[C@@H](CCCNC(=N)N)C(=O)N[C@@H](Cc2ccc(O)cc2)C(=O)N1)C(=O)N[C@@H](CCCNC(=N)N)C(=O)N[C@@H](Cc1ccc(O)cc1)C(N)=O [Compound 17]

- Ki [1]: 0.398 nM
- Ki (hY4R [2]; [21]): 1.58 nM
- Ki (hY4R [2]; [22]): 0.245 nM
- Ki (hY4R-Nluc(intraECL2)): 0.851 nM
Compound: CCC(=O)NCCCC(=O)N[C@@H]1CC(=O)N[C@@H](CCCNC(=N)N)C(=O)N[C@@H](Cc2ccc(O)cc2)C(=O)N[C@H](C(=O)N[C@@H](CC(C)C)C(=O)N[C@@H](CCCNC(=N)N)C(=O)N[C@@H](Cc2ccc(O)cc2)C(N)=O)CCCNC(N)=NC(=O)NCCCCNC1=O [Compound 7]
- pKi literature, 137 mM Na+ (hY4R [20]): 9.79 ^e

- Ki (hY1R [12]; read-out: Ki hY1R (converted)): 120 nM
- Ki (hY1R [12]; [23]): 123 nM
- Ki (hY2R [13]): > 1000 nM
- Emax (hY4R [14]): 66 ± 2%
- Emax (hY4R [15]): 93 ± 5%
- Ki (hY5R [16]; read-out: Ki hY5R (converted)): 480 nM
- Ki (hY5R [16]; [24]): 479 nM
- Emax (Y4R [5]): 72 ± 9%
- chemical stability [17]: excellent stability
Compound: CC(C)C[C@H](NC(=O)[C@@H]1CCCNC(N)=NC(=O)NCCCCNC(=O)[C@H](NC(=O)CCCNC(=O)CCC#Cc2ccc3c(c2)C(C)(C)C2=C4C=C5C6=[N+](CCC5OC4CCN23)c2ccc(S(=O)(=O)[O-])cc2C6(C)C)CC(=O)N[C@@H](CCCNC(=N)N)C(=O)N[C@@H](Cc2ccc(O)cc2)C(=O)N1)C(=O)N[C@@H](CCCNC(=N)N)C(=O)N[C@@H](Cc1ccc(O)cc1)C(N)=O (some centres unmarked) [Compound 16]

Continued, compound first:

Compound: CC(C)C[C@H](NC(=O)[C@@H]1CCCNC(N)=NC(=O)NCCCCNC(=O)CCC(=O)N[C@@H](CCCNC(=N)N)C(=O)N[C@@H](Cc2c[nH]c3ccccc23)C(=O)N1)C(=O)N[C@@H](CCCNC(=N)N)C(=O)N[C@@H](Cc1ccc(O)cc1)C(N)=O [Compound 5]
- Ki [1]: 0.55 nM
- Ki (hY4R [2]; [21]): 0.708 nM
- Ki (hY4R [2]; [22]): 0.324 nM
- Ki (hY2R [3]): > 10000 nM
- pKi hY2R (hY2R [3]): < 5
- Ki (hY4R-Nluc(intraECL2)): 1.29 nM
- Ki (hY5R [4]): > 3000 nM
- pKi hY5R (hY5R [4]): < 5.5
- EC50 (Y4R [5]; read-out: miniGsi recruitment EC50 (converted)): 1.8 nM
- Emax (Y4R [5]): 61 ± 2%
- Ki (hY1R [6]): > 10000 nM
- pKi hY1R (hY1R [6]): < 5

Compound: hPP (from UniProt P01298)
- Ki (Y4R [7]): 0.079 nM
- Ki [8]: > 3000 nM
- Ki [9]: 17 nM
- Ki (Y4R [10]): 0.1 nM
- Ki [11]: 440 nM

Compound: Sulfo-Cy5-[K4]hPP (from UniProt P01298)
- Kd (Y4R [18]): 5.6 nM

Compound: 5-TAMRA-[K18,Nle17,30]hPP (2) (from UniProt P01298)
- Kd (Y4R [19]): 26 nM
